Experimental data published in patent publication US8592172B2, “Bioluminescent assays using cyanobenzothiazole compounds” (Promega Corporation, priority 2010, dated 2013).

Legend:
[1] = system: UGT isozymes in human hepatocytes; conditions: compound 3138, 15-20 minutes at 37° C.
UGT 2B7 = UGT 2B7 (Homo sapiens, UniProt P16662); assay: Recombinant UGT panel, substrate utilization; type: biochemical; set-up: purchased BD Gentest; host or cells: insect cells (microsomes); conditions: 2 hour incubation at 37° C., recombinant Supersomes, background corrected
Sequence of UGT 2B7 (P16662 24-529): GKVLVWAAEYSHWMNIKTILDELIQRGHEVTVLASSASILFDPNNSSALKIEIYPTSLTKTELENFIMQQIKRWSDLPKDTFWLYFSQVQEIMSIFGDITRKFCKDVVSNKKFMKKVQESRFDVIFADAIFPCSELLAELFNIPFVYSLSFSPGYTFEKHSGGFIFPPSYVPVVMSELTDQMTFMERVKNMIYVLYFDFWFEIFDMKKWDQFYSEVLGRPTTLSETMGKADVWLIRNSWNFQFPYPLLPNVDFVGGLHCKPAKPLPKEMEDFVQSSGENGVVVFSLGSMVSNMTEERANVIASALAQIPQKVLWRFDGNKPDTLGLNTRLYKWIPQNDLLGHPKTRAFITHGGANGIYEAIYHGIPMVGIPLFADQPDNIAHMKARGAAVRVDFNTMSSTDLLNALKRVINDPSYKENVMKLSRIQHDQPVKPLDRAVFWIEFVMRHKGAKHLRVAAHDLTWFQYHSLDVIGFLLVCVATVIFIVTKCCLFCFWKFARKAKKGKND
Procedure: (§1) During this incubation, the cysteine reacts with the cyanobenzathiozole substrate to yield a D-luciferin derivative. […] Therefore, activity of the UGT enzyme can be measured by analyzing the difference (lower or no output) in relative light units (RLU) of a sample in which glucuronidation occurs compared to a sample that was run under the same conditions with no added UDPGA cofactor.
(§2) In this example, a series of 12 recombinant UGTs expressed in insect microsomes (Supersomes™, BD Gentest™), as well as the control microsomes not expressing the UGT enzyme, were incubated with compound 3138, compound 3478, or compound 3165 as substrates, with or without the UDPGA co-factor.
(§3) After addition of a luciferin detection reagent (LDR) containing D-cysteine, both the substrate and the product were converted to D-luciferins (compound 3478 is already a luciferin derivative before addition of the LDR).
Reactions were assembled in a white, 96-well plate. Each well contained 20 μL of reaction mixture comprised of 100 mM TES, pH 7.5, 16 mM MgCl2, 50 μg/mL alamethicin (Sigma), 60 μM compound 3138 or compound 3478, and 0.4 mg/mL of control or recombinant UGT membranes. The reactions were initiated by addition of 20 μL of water or 8 mM triammonium UDPGA (Sigma) to each well. […] After the incubation was completed, the plate was read on a Veritas™ luminometer (Turner BioSystems, Inc.; Sunnyvale, Calif.). […]

[2] = system: endogenously expressed UGT isozymes in mammalian microsomes; assay: Utilization of compound 3138 by mammalian tissue microsomes; type: biochemical; conditions: 50 μM compound 3138, 0.1 mg/mL mammalian microsomes, 15 minutes at 37° C.
Procedure: The ability of endogenously expressed UGT isozymes to utilize compounds 3138 and 3165 as substrates was determined in a similar manner to the assays with recombinant microsomes (Example 1). […] Tissue microsomes were obtained from Xenotech LLC or BD Gentest. Addition of P450-Glo LDR plus cysteine and data analysis was performed in the same manner as for the recombinant Supersome panel screen (Example 1 above).

UGT 1A8 = molecular target: T1, UGT 1A8 (Homo sapiens, UniProt Q9HAW9); assay: Recombinant UGT panel, substrate utilization; type: biochemical; conditions: 2 hour incubation at 37° C., recombinant Supersomes, background corrected
T1 construct: purchased BD Gentest; host or cells: insect cells (microsomes)
T1 sequence (Q9HAW9 26-530): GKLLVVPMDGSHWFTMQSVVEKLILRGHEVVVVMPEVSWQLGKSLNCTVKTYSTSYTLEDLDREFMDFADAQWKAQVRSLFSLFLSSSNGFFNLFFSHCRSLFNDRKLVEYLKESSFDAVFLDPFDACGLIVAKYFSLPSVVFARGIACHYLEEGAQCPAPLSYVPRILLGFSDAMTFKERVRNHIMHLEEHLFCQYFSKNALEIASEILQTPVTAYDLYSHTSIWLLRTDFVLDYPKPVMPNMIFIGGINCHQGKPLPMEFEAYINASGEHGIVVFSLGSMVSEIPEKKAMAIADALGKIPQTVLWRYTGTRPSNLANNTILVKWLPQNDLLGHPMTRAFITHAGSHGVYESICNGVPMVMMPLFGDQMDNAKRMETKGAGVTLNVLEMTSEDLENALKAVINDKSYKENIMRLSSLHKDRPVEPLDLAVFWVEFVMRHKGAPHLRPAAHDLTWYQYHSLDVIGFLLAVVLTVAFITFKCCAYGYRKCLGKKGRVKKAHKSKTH
Procedure: as §1, §2, §3
(§4) Reactions were assembled in a white, 96-well plate. Each well contained 20 μL of reaction mixture comprised of 100 mM TES, pH 7.5, 16 mM MgCl2, 50 μg/mL alamethicin (Sigma), 60 μM compound 3138 or compound 3478, and 0.4 mg/mL of control or recombinant UGT membranes. The reactions were initiated by addition of 20 μL of water or 8 mM triammonium UDPGA (Sigma) to each well. The plate was mixed, sealed, and incubated in a 37° C. water bath for 2 hours. After the incubation, 40 μL P450-Glo LDR (Promega) with 20 mM D-cysteine-HCl.H2O (Sigma) was added to each well, the plate was mixed and allowed to incubate at room temperature for 20 minutes. After the incubation was completed, the plate was read on a Veritas™ luminometer (Turner BioSystems, Inc.; Sunnyvale, Calif.).
(§5) For each isozyme, the bioluminescence from the replicates containing UDPGA were subtracted from the average bioluminescence of the replicates without UDPGA. The average Δ RLU value obtained and the standard deviation of the replicates were then divided by the average bioluminescence for samples without UDPGA to obtain the % utilization for each isozyme. The % utilization obtained from the control microsomes was then subtracted from each isozyme to give the background corrected utilization data for those isozymes.

UGT 1A9 = molecular target: T2, UGT 1A9 (Homo sapiens, UniProt O60656); assay: Recombinant UGT panel, substrate utilization; type: biochemical; conditions: 2 hour incubation at 37° C., recombinant Supersomes, background corrected
T2 construct: purchased BD Gentest; host or cells: insect cells (microsomes)
T2 sequence (O60656 26-530): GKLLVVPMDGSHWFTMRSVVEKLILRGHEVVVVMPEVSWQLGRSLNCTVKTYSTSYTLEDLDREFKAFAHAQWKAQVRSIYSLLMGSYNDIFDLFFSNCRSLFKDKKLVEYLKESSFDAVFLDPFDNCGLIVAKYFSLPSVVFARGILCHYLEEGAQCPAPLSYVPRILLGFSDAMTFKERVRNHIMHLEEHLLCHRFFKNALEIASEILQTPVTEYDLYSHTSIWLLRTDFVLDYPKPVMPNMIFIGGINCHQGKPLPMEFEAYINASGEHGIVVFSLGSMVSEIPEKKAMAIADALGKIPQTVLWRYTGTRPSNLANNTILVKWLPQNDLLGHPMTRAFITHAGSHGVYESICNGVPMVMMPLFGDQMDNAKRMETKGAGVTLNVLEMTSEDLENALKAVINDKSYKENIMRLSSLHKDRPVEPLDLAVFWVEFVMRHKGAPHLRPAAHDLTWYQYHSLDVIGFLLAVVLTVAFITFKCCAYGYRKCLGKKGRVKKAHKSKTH
Procedure: as §1, §2, §3, §4, §5

UGT 1A4 = molecular target: T3, UGT 1A4 (Homo sapiens, UniProt P22310); assay: Recombinant UGT panel, substrate utilization; type: biochemical; conditions: 2 hour incubation at 37° C., recombinant Supersomes
T3 construct: purchased BD Gentest; host or cells: insect cells (microsomes)
T3 sequence (P22310 29-534): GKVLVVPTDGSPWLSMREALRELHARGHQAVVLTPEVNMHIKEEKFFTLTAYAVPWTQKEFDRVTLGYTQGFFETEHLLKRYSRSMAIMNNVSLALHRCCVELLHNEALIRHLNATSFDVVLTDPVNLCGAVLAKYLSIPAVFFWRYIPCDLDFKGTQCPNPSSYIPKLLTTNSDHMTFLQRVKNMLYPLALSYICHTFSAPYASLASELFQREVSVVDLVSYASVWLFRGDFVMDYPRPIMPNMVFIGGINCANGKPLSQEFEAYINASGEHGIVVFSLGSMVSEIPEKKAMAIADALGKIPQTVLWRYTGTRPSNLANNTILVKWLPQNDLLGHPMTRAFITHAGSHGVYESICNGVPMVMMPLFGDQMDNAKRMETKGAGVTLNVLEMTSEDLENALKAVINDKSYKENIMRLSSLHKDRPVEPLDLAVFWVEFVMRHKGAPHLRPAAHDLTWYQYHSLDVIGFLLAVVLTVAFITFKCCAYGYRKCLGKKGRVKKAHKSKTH
Procedure: as §1, §2, §3, §4, §5

UGT 1A1 = molecular target: T4, UGT 1A1 (Homo sapiens, UniProt P22309); assay: Recombinant UGT panel, substrate utilization; type: biochemical; conditions: 2 hour incubation at 37° C., recombinant Supersomes, background corrected
T4 construct: purchased BD Gentest; host or cells: insect cells (microsomes)
T4 sequence (P22309 26-533): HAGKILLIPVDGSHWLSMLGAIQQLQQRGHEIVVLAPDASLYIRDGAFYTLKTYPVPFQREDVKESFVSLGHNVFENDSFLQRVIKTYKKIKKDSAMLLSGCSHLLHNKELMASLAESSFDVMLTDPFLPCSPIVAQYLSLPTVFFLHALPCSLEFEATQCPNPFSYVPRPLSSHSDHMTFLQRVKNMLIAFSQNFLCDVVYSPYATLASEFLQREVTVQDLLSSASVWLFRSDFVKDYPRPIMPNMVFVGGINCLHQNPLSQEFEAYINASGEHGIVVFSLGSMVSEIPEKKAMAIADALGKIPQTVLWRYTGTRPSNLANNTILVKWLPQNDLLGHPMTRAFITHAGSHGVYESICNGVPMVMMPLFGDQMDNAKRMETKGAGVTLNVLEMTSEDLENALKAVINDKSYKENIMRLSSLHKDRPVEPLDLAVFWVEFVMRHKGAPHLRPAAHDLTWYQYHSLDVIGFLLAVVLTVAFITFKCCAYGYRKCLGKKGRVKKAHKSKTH
Procedure: as §1, §2, §3, §4, §5

UGT 1A6 = molecular target: T5, UGT 1A6 (Homo sapiens, UniProt P19224); assay: Recombinant UGT panel, substrate utilization; type: biochemical; conditions: 2 hour incubation at 37° C., recombinant Supersomes
T5 construct: purchased BD Gentest; host or cells: insect cells (microsomes)
T5 sequence (P19224 27-532): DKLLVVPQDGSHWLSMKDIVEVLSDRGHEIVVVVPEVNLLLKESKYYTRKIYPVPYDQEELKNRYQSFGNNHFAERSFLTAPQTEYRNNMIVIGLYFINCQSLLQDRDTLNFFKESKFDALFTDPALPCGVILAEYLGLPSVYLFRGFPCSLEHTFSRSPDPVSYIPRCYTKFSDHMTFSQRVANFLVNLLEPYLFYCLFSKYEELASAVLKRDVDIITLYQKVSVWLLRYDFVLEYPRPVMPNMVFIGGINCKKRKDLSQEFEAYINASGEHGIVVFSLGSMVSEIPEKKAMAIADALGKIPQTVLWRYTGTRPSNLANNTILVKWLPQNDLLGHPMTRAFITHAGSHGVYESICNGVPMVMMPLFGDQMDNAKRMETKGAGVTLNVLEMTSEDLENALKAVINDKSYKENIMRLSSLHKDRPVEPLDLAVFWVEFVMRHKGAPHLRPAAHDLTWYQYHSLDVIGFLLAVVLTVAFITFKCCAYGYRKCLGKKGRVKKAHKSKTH
Procedure: as §1, §2, §3, §4, §5

UGT 2B4 = molecular target: T6, UGT 2B4 (Homo sapiens, UniProt P06133); assay: Recombinant UGT panel, substrate utilization; type: biochemical; conditions: 2 hour incubation at 37° C., recombinant Supersomes
T6 construct: purchased BD Gentest; host or cells: insect cells (microsomes)
T6 sequence (P06133 24-528): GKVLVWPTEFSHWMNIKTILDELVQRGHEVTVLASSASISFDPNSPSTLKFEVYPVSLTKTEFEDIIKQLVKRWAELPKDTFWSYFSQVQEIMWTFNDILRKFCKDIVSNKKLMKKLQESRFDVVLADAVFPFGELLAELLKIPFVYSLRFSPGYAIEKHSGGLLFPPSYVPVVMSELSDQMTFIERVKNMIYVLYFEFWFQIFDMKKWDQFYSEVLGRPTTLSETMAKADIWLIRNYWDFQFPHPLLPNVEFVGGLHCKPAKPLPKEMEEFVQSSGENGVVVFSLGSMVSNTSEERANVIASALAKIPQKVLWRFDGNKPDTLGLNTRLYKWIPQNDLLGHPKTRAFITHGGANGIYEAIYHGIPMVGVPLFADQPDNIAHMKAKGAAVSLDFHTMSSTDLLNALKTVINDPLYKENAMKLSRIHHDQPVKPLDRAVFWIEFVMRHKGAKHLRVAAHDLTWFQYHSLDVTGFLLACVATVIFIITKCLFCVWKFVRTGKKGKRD
Procedure: as §1, §2, §3, §4, §5

UGT 1A10 = molecular target: T7, UGT 1A10 (Homo sapiens, UniProt Q9HAW8); assay: Recombinant UGT panel, substrate utilization; type: biochemical; conditions: 2 hour incubation at 37° C., recombinant Supersomes, background corrected
T7 construct: purchased BD Gentest; host or cells: insect cells (microsomes)
T7 sequence (Q9HAW8 26-530): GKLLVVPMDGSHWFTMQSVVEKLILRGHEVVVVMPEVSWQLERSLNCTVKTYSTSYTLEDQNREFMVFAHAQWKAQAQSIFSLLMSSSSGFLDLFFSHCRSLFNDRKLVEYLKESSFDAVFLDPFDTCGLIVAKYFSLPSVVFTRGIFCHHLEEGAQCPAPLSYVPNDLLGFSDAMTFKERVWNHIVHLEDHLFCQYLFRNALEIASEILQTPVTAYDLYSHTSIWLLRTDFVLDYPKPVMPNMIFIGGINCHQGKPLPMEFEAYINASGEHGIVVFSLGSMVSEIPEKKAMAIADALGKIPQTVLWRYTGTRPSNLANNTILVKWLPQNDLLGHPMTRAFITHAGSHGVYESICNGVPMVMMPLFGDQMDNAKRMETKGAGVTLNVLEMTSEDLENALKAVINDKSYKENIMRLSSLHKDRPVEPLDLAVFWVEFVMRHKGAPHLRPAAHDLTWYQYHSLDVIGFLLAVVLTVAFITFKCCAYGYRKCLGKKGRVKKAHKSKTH
Procedure: as §1, §2, §3, §4, §5

UGT 2B15 = molecular target: T8, UGT 2B15 (Homo sapiens, UniProt P54855); assay: Recombinant UGT panel, substrate utilization; type: biochemical; conditions: 2 hour incubation at 37° C., recombinant Supersomes
T8 construct: purchased BD Gentest; host or cells: insect cells (microsomes)
T8 sequence (P54855 24-530): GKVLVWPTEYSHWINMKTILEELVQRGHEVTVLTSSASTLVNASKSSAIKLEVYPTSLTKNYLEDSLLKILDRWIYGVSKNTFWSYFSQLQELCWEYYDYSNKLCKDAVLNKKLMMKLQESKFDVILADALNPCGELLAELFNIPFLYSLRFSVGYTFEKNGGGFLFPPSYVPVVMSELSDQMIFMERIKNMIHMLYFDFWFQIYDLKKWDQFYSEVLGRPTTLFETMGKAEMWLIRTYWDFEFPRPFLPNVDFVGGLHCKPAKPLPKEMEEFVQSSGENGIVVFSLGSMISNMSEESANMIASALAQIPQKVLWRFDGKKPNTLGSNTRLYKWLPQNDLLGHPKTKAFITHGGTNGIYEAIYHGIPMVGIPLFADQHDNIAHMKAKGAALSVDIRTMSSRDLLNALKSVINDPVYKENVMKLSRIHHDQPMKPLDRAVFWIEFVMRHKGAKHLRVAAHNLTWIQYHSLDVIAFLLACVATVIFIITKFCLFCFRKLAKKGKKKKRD
Procedure: as §1, §2, §3, §4, §5

UGT 1A3 = molecular target: T9, UGT 1A3 (Homo sapiens, UniProt P35503); assay: Recombinant UGT panel, substrate utilization; type: biochemical; conditions: 2 hour incubation at 37° C., recombinant Supersomes
T9 construct: purchased BD Gentest; host or cells: insect cells (microsomes)
T9 sequence (P35503 29-534): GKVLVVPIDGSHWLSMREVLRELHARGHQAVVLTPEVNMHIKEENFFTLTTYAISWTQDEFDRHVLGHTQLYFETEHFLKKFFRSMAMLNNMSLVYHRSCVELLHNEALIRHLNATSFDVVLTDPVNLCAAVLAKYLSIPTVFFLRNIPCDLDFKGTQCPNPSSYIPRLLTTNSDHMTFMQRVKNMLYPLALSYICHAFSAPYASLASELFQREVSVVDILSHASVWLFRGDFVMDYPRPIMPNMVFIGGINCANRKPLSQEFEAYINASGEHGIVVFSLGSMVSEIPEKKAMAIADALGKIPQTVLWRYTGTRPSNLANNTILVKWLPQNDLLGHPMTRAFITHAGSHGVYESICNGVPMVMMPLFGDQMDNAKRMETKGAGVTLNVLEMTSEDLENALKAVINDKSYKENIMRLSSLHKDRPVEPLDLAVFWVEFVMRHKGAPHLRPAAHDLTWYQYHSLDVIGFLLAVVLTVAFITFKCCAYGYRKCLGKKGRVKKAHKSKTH
Procedure: as §1, §2, §3, §4, §5

UGT 2B17 = molecular target: T10, UGT 2B17 (Homo sapiens, UniProt O75795); assay: Recombinant UGT panel, substrate utilization; type: biochemical; conditions: 2 hour incubation at 37° C., recombinant Supersomes
T10 construct: purchased BD Gentest; host or cells: insect cells (microsomes)
T10 sequence (O75795 24-530): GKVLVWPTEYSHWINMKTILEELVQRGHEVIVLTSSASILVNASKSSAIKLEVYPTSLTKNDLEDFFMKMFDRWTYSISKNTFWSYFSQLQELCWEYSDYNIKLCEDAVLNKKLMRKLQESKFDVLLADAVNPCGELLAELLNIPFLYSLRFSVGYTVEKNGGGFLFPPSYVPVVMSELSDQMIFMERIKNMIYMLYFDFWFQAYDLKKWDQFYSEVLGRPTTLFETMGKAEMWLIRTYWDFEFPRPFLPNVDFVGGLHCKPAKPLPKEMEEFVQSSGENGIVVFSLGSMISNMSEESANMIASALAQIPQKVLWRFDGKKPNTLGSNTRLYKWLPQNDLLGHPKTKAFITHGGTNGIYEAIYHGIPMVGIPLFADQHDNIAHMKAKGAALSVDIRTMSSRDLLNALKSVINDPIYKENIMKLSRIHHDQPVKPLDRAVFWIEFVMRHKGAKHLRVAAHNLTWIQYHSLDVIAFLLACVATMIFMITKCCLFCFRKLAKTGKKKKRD
Procedure: as §1, §2, §3, §4, §5

UGT 1A7 = molecular target: T11, UGT 1A7 (Homo sapiens, UniProt Q9HAW7); assay: Recombinant UGT panel, substrate utilization; type: biochemical; conditions: 2 hour incubation at 37° C., recombinant Supersomes
T11 construct: purchased BD Gentest; host or cells: insect cells (microsomes)
T11 sequence (Q9HAW7 26-530): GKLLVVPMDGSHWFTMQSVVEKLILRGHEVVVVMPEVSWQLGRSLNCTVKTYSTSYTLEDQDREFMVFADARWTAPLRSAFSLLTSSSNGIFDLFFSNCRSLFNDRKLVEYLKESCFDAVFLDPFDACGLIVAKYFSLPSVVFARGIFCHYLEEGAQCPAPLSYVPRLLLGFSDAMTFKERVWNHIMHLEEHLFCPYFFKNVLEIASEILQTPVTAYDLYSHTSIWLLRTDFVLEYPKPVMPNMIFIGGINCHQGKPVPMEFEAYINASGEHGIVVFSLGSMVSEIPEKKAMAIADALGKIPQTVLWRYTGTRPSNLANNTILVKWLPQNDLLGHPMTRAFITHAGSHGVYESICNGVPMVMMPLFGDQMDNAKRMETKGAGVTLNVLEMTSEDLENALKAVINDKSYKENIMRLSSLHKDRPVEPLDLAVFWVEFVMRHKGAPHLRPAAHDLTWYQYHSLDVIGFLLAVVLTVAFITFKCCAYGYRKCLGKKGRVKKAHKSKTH
Procedure: as §1, §2, §3, §4, §5

Cc1cc(O)cc2sc(C#N)nc12 [Compound 3138]
conversion of substrate by intact hepatocytes [1]: Conversion of the PBI 3138 was seen | % utilization of substrate by UGT 2B7 (UGT 2B7): over 50% | utilization by tissue microsomes compared with control 1A1 Supersomes [2]: utilized much more of compound 3138 than the control 1A1 Supersomes | % utilization of substrate by UGT 1A8 (UGT 1A8): over 50% | % utilization of substrate by UGT 1A9 (UGT 1A9): over 50% | utilization of substrate by UGT 1A4 (UGT 1A4): did not utilize either compound 3138 or 3478 to an appreciable extent | % utilization of substrate by UGT 1A1 (UGT 1A1): over 50% | utilization of substrate by UGT 1A6 (UGT 1A6): detectable levels of utilization above background | utilization of substrate by UGT 2B4 (UGT 2B4): did not utilize either compound 3138 or 3478 to an appreciable extent | % utilization of substrate by UGT 1A10 (UGT 1A10): over 50% | utilization of substrate by UGT 2B15 (UGT 2B15): detectable levels of utilization above background | utilization of substrate by UGT 1A3 (UGT 1A3): detectable levels of utilization above background | utilization of substrate by UGT 2B17 (UGT 2B17): detectable levels of utilization above background | utilization of substrate by UGT 1A7 (UGT 1A7): detectable levels of utilization above background
